Test results from ChEMBL document CHEMBL1143427, “Interactions of ceftobiprole with beta-lactamases from molecular classes A to D” (Antimicrob Agents Chemother, 2007).

Legend:
Klebsiella pneumoniae [1] = experiment: Activity of Klebsiella pneumoniae TEM26 assessed as drug hydrolysis by spectrophotometry relative to cephaloridine; design: scale not given: the % may be the effect or the level left
[2] = molecular target: Beta-lactamase (Pseudomonas aeruginosa (strain ATCC 15692 / PAO1 / 1C / PRS 101 / LMG12228)) (UniProt P24735); experiment: Ratio of Kcat to Km of Pseudomonas aeruginosa 18SH AmpC assessed as drug hydrolysis by spectrophotometry relative to cephaloridine; design: scale not given: the % may be the effect or the level left
Chain of Beta-lactamase (Pseudomonas aeruginosa (strain ATCC 15692 / PAO1 / 1C / PRS 101 / LMG12228)) (P24735 27-397 limits assumed): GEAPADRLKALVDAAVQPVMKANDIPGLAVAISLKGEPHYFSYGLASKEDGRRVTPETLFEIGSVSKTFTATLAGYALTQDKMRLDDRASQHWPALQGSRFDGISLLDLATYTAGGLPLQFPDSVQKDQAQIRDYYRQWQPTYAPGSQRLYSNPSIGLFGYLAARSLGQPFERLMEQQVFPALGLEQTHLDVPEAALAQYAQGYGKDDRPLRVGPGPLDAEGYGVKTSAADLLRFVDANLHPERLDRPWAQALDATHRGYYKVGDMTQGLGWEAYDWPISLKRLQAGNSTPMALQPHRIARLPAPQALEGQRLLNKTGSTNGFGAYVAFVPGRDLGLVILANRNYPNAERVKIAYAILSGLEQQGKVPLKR

[3] = molecular target: Beta-lactamase (Staphylococcus aureus) (UniProt P00807); experiment: Activity of Staphylococcus aureus betalactamase PC1 assessed as drug hydrolysis by spectrophotometry relative to cephaloridine; design: scale not given: the % may be the effect or the level left
Chain of Beta-lactamase (Staphylococcus aureus) (P00807 whole entry): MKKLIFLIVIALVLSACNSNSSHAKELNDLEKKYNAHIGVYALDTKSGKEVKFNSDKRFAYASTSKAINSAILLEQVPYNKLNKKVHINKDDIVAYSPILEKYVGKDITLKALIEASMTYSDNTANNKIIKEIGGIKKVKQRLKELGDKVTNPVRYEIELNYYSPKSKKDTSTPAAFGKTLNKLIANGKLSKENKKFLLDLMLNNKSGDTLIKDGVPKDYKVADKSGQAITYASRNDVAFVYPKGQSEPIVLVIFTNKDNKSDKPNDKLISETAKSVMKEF

[4] = molecular target: T1, Beta-lactamase (Klebsiella oxytoca) (UniProt Q8RT60); experiment: Activity of Klebsiella oxytoca beta-lactamase K1 assessed as drug hydrolysis by spectrophotometry relative to cephaloridine; design: scale not given: the % may be the effect or the level left
T1 sequence (whole entry): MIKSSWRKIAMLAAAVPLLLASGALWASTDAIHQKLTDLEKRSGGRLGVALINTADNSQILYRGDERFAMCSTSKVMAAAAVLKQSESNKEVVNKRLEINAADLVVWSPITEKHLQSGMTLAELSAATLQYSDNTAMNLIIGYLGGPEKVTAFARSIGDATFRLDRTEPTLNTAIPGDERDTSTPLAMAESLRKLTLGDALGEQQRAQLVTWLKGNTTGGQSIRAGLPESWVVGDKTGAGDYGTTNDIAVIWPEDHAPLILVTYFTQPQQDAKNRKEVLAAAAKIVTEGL

[5] = molecular target: T2, Beta-lactamase SHV-1 (Klebsiella pneumoniae) (UniProt P0AD64); experiment: Activity of Klebsiella pneumoniae SHV1 assessed as drug hydrolysis by spectrophotometry relative to cephaloridine; design: scale not given: the % may be the effect or the level left
T2 sequence (whole entry): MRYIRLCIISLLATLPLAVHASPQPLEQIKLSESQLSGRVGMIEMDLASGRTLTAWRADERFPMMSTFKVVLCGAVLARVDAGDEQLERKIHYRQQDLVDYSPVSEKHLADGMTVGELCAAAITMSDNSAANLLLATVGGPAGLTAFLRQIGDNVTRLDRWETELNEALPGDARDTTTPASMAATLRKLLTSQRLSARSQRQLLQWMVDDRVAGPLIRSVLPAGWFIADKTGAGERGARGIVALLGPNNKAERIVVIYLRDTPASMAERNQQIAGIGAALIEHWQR

[6] = molecular target: Beta-lactamase (Staphylococcus aureus) (UniProt P00807); experiment: Ratio of Kcat to Km of Staphylococcus aureus betalactamase PC1 assessed as drug hydrolysis by spectrophotometry relative to cephaloridine; design: scale not given: the % may be the effect or the level left
[7] = molecular target: Metallo beta-lactamase (Pseudomonas aeruginosa) (UniProt Q6TUJ4); experiment: Ratio of Kcat to Km of Pseudomonas aeruginosa IMP1 assessed as drug hydrolysis by spectrophotometry relative to cephaloridine; design: scale not given: the % may be the effect or the level left
Chain of Metallo beta-lactamase (Pseudomonas aeruginosa) (Q6TUJ4 as listed by the source): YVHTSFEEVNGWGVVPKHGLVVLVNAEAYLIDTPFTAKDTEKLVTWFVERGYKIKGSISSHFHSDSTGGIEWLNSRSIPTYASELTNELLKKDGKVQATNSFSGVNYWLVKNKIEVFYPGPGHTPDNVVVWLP

[8] = molecular target: Beta-lactamase TEM (Escherichia coli) (UniProt P62593); experiment: Activity of Escherichia coli TEM1 assessed as drug hydrolysis by spectrophotometry relative to cephaloridine; design: scale not given: the % may be the effect or the level left
Chain of Beta-lactamase TEM (Escherichia coli) (P62593 whole entry): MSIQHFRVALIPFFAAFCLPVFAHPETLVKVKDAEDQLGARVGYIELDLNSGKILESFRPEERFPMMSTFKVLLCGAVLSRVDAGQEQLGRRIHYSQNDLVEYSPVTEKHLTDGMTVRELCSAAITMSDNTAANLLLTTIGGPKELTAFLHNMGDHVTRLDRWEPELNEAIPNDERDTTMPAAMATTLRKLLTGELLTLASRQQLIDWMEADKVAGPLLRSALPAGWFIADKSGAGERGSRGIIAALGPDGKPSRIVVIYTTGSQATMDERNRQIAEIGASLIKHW

[9] = molecular target: Beta-lactamase (Pseudomonas aeruginosa (strain ATCC 15692 / PAO1 / 1C / PRS 101 / LMG12228)) (UniProt P24735); experiment: Activity of Pseudomonas aeruginosa 18SH AmpC assessed as drug hydrolysis by spectrophotometry relative to cephaloridine; design: scale not given: the % may be the effect or the level left
[10] = molecular target: Beta-lactamase (Morganella morganii) (UniProt P94958); experiment: Activity of Morganella morganii AmpC assessed as drug hydrolysis by spectrophotometry relative to cephaloridine; design: scale not given: the % may be the effect or the level left
[11] = molecular target: Beta-lactamase (Pseudomonas aeruginosa (strain ATCC 15692 / PAO1 / 1C / PRS 101 / LMG12228)) (UniProt P24735); experiment: Ratio of Kcat to Km of Pseudomonas aeruginosa AmpC assessed as drug hydrolysis by spectrophotometry relative to cephaloridine; design: scale not given: the % may be the effect or the level left
[12] = molecular target: Beta-lactamase (Pseudomonas aeruginosa (strain ATCC 15692 / PAO1 / 1C / PRS 101 / LMG12228)) (UniProt P24735); experiment: Activity of Pseudomonas aeruginosa AmpC assessed as drug hydrolysis by spectrophotometry relative to cephaloridine; design: scale not given: the % may be the effect or the level left
[13] = molecular target: T1, Beta-lactamase (Klebsiella oxytoca); experiment: Ratio of Kcat to Km of Klebsiella oxytoca beta-lactamase K1 assessed as drug hydrolysis by spectrophotometry relative to cephaloridine; design: scale not given: the % may be the effect or the level left
[14] = molecular target: Beta-lactamase (Serratia marcescens) (UniProt P18539); experiment: Activity of Serratia marcescens AmpC assessed as drug hydrolysis by spectrophotometry relative to cephaloridine; design: scale not given: the % may be the effect or the level left
Chain of Beta-lactamase (Serratia marcescens) (P18539 whole entry): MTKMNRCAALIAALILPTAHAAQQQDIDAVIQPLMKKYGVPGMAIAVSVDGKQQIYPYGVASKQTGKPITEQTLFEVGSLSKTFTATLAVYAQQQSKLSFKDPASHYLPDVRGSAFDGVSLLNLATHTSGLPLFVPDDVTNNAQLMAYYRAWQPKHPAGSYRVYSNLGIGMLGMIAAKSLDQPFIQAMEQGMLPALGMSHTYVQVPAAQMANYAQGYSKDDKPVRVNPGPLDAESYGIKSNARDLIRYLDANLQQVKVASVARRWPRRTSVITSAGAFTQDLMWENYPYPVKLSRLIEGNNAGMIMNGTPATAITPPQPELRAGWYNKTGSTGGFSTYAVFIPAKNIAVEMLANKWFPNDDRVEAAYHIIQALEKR

[15] = molecular target: Beta-lactamase (Pseudomonas aeruginosa (strain ATCC 15692 / PAO1 / 1C / PRS 101 / LMG12228)) (UniProt P24735); experiment: Activity of Pseudomonas aeruginosa 4352 AmpC assessed as drug hydrolysis by spectrophotometry relative to cephaloridine; design: scale not given: the % may be the effect or the level left
[16] = molecular target: Beta-lactamase (Morganella morganii) (UniProt P94958); experiment: Ratio of Kcat to Km of Morganella morganii AmpC assessed as drug hydrolysis by spectrophotometry relative to cephaloridine; design: scale not given: the % may be the effect or the level left
Klebsiella pneumoniae [17] = experiment: Ratio of Kcat to Km of Klebsiella pneumoniae TEM26 assessed as drug hydrolysis by spectrophotometry relative to cephaloridine; design: scale not given: the % may be the effect or the level left
[18] = molecular target: Beta-lactamase VIM-2 (Pseudomonas aeruginosa) (UniProt Q9K2N0); experiment: Activity of Pseudomonas aeruginosa VIM2 assessed as drug hydrolysis by spectrophotometry relative to cephaloridine; design: scale not given: the % may be the effect or the level left
[19] = molecular target: T3, Carbapenem-hydrolyzing beta-lactamase SME-3 (Serratia marcescens) (UniProt Q6PRG8); experiment: Ratio of Kcat to Km of Serratia marcescens SME3 assessed as drug hydrolysis by spectrophotometry relative to cephaloridine; design: scale not given: the % may be the effect or the level left
T3 sequence (whole entry): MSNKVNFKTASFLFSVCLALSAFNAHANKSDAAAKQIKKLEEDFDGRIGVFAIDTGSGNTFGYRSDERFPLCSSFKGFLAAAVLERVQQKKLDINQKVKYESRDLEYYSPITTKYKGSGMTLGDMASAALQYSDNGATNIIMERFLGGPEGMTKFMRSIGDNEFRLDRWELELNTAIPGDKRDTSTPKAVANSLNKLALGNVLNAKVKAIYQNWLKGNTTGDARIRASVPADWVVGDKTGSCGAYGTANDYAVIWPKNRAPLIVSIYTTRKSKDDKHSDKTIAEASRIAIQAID

[20] = molecular target: T4, Beta-lactamase (Providencia stuartii) (UniProt O69773); experiment: Ratio of Kcat to Km of Providencia stuartii AmpC assessed as drug hydrolysis by spectrophotometry relative to cephaloridine; design: scale not given: the % may be the effect or the level left
T4 sequence (whole entry): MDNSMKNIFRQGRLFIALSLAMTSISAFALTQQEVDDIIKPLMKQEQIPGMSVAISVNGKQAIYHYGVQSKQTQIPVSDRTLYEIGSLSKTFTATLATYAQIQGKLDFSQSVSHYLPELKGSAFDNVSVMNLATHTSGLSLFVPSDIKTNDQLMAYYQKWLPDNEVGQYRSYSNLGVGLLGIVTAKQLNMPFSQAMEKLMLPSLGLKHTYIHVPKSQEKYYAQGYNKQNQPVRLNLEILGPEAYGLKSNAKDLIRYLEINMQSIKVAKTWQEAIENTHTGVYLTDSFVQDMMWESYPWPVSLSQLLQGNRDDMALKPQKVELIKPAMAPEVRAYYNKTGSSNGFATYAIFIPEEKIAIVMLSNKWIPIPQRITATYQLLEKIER

Klebsiella pneumoniae [21] = experiment: Ratio of Kcat to Km of Klebsiella pneumoniae TEM26 assessed as drug hydrolysis by spectrophotometry
[22] = molecular target: T4, Beta-lactamase (Providencia stuartii); experiment: Activity of Providencia stuartii AmpC assessed as drug hydrolysis by spectrophotometry relative to cephaloridine; design: scale not given: the % may be the effect or the level left
[23] = molecular target: Beta-lactamase CTX-M (Escherichia coli) (UniProt Q9EXV5); experiment: Activity of Escherichia coli CTX-M-15 assessed as drug hydrolysis by spectrophotometry relative to cephaloridine; design: scale not given: the % may be the effect or the level left
[24] = molecular target: Beta-lactamase TEM (Escherichia coli) (UniProt P62593); experiment: Ratio of Kcat to Km of Escherichia coli TEM1 assessed as drug hydrolysis by spectrophotometry relative to cephaloridine; design: scale not given: the % may be the effect or the level left
[25] = molecular target: Beta-lactamase (Pseudomonas aeruginosa (strain ATCC 15692 / PAO1 / 1C / PRS 101 / LMG12228)) (UniProt P24735); experiment: Activity of Pseudomonas aeruginosa MK-1184 AmpC assessed as drug hydrolysis by spectrophotometry relative to cephaloridine; design: scale not given: the % may be the effect or the level left
[26] = molecular target: Beta-lactamase VIM-2 (Pseudomonas aeruginosa) (UniProt Q9K2N0); experiment: Ratio of Kcat to Km of Pseudomonas aeruginosa VIM2 assessed as drug hydrolysis by spectrophotometry relative to cephaloridine; design: scale not given: the % may be the effect or the level left
[27] = molecular target: Beta-lactamase CTX-M (Escherichia coli) (UniProt Q9EXV5); experiment: Ratio of Kcat to Km of Escherichia coli CTX-M-15 assessed as drug hydrolysis by spectrophotometry relative to cephaloridine; design: scale not given: the % may be the effect or the level left
[28] = molecular target: T3, Carbapenem-hydrolyzing beta-lactamase SME-3 (Serratia marcescens); experiment: Activity of Serratia marcescens SME3 assessed as drug hydrolysis by spectrophotometry relative to cephaloridine; design: scale not given: the % may be the effect or the level left
[29] = molecular target: Beta-lactamase (Pseudomonas aeruginosa (strain ATCC 15692 / PAO1 / 1C / PRS 101 / LMG12228)) (UniProt P24735); experiment: Ratio of Kcat to Km of Pseudomonas aeruginosa 4352 AmpC assessed as drug hydrolysis by spectrophotometry relative to cephaloridine; design: scale not given: the % may be the effect or the level left
Klebsiella pneumoniae [30] = experiment: Activity of Klebsiella pneumoniae TEM26 assessed as drug hydrolysis by spectrophotometry
[31] = molecular target: T2, Beta-lactamase SHV-1 (Klebsiella pneumoniae); experiment: Ratio of Kcat to Km of Klebsiella pneumoniae SHV1 assessed as drug hydrolysis by spectrophotometry relative to cephaloridine; design: scale not given: the % may be the effect or the level left
[32] = molecular target: Beta-lactamase (Serratia marcescens) (UniProt P18539); experiment: Ratio of Kcat to Km of Serratia marcescens AmpC assessed as drug hydrolysis by spectrophotometry relative to cephaloridine; design: scale not given: the % may be the effect or the level left
[33] = molecular target: Beta-lactamase (Pseudomonas aeruginosa (strain ATCC 15692 / PAO1 / 1C / PRS 101 / LMG12228)) (UniProt P24735); experiment: Ratio of Kcat to Km of Pseudomonas aeruginosa MK-1184 AmpC assessed as drug hydrolysis by spectrophotometry relative to cephaloridine; design: scale not given: the % may be the effect or the level left

Compound | Activity (Klebsiella pneumoniae [1]) [%] | Activity [2] [%] | Activity [3] [%] | Activity [4] [%] | Activity [5] [%] | Activity [6] [%] | Activity [7] [%] | Activity [8] [%] | Activity [9] [%] | Activity [10] [%] | Activity [11] [%] | Activity [12] [%] | Activity [13] [%] | Activity [14] [%] | Activity [15] [%] | Activity [16] [%] | Activity (Klebsiella pneumoniae [17]) [%] | Activity [18] [%] | Activity [19] [%] | Activity [20] [%] | further results
CO/N=C(\C(=O)N[C@@H]1C(=O)N2C(C(=O)[O-])=C(C[N+]3(C)CCCC3)CS[C@H]12)c1csc(N)n1 | 54 | 0.5 | 1.4 | 8.5 | 0.42 | 2.5 | 200 | 0.45 | < 0.1 | < 0.047 | 1.6 | 19 | 0.84 | < 0.028 | < 0.012 | < 0.018 | 55 | 0.32 | 0.18 | 0.66 | kcat/Km (Klebsiella pneumoniae [21]): 310000 M⁻¹ s⁻¹; Activity [22]: 0.57%; Activity [23]: 24%; Activity [24]: 0.38%; Activity [25]: 1.5%; Activity [26]: 4.1%; Activity [27]: 5.1%; Activity [28]: 0.13%; Activity [29]: 0.011%; Km (Klebsiella pneumoniae [30]): 65 µM; kcat (Klebsiella pneumoniae [30]): 20 s⁻¹; Activity [31]: 0.81%; Activity [32]: < 0.022%; Activity [33]: 0.78%
CC1(C)S[C@@H]2[C@H](NC(=O)Cc3ccccc3)C(=O)N2[C@H]1C(=O)O | 210 | 61 | 46000 | 160 | 260 | 1.5e+06 | 750 | 122 | 35 | 26 | 14000 | 540 | 400 | 0.95 | 37 | 860 | 2700 | 61 | 130 | 43 | kcat/Km (Klebsiella pneumoniae [21]): 1.5e+07 M⁻¹ s⁻¹; Activity [22]: 0.62%; Activity [23]: 25%; Activity [24]: 5600%; Activity [25]: 91%; Activity [26]: 570%; Activity [27]: 110%; Activity [28]: 0.73%; Activity [29]: 1100%; Km (Klebsiella pneumoniae [30]): 5 µM; kcat (Klebsiella pneumoniae [30]): 76 s⁻¹; Activity [31]: 2600%; Activity [32]: 290%; Activity [33]: 670%
